Test results from ChEMBL document CHEMBL3992489, “Potentiation of the Fosmidomycin analogue FR 900098 with substituted 2-oxazolines against Francisella novicida” (2016).
Calls of active or inactive are those of the source. No cut-off for these calls is given here.

Tests used:
[1] = Antibacterial activity against Francisella novicida U112 after 48 hrs; type: functional, Francisella tularensis subsp. novicida U112; conditions: Francisella tularensis
[2] = Potentiation of FR900098-induced antibacterial activity against Francisella novicida U112 assessed as FR900098 MIC after 48 hrs; type: functional, Francisella tularensis subsp. novicida U112; conditions: Francisella tularensis
[3] = Potentiation of FR900098-induced antibacterial activity against Francisella novicida U112 assessed as fold reduction in FR900098 MIC after 48 hrs; type: functional, Francisella tularensis subsp. novicida U112
[4] = Antibacterial activity against Francisella philomiragia ATCC 25015 after 48 hrs; type: functional, Francisella philomiragia subsp. philomiragia ATCC 25015; conditions: ATCC 25015, 48 h
[5] = Potentiation of FR900098-induced antibacterial activity against Francisella philomiragia ATCC 25015 assessed as fold reduction in FR900098 MIC after 48 hrs; type: functional, Francisella philomiragia subsp. philomiragia ATCC 25015
[6] = Potentiation of FR900098-induced antibacterial activity against Francisella novicida U112 assessed as fold reduction in FR900098 MIC at 40 uM after 48 hrs; type: functional, Francisella tularensis subsp. novicida U112
[7] = Potentiation of FR900098-induced antibacterial activity against Francisella novicida U112 assessed as FR900098 MIC at 40 uM after 48 hrs; type: functional, Francisella tularensis subsp. novicida U112; conditions: Francisella tularensis
[8] = system: Francisella tularensis subsp. novicida U112; assay: Bactericidal activity against Francisella novicida U112 at 25% antibacterial MIC up to 24 hrs by time kill curve assay; type: functional
[9] = system: Francisella tularensis subsp. novicida U112; assay: Potentiation of FR900098-induced antibacterial activity against Francisella novicida U112 assessed as reduction in FR900098 MIC at <30 uM after 48 hrs; type: functional

For CCCCCc1ccc(C2=NCCS2)cc1, the MIC [1] was 200 µM, the MIC [2] was 1 µg/mL and the “fold change (FC)” value [3] was 16.
With CCCCCCCc1ccc(C2=NCCO2)cc1 the MIC [1] was 100 µM, the MIC [2] was 2 µg/mL and the “fold change (FC)” value [3] was 8.
Compound CCCCCCc1ccc(-c2ccncc2)cc1 has an MIC [1] of 100 µM and an MIC [2] of 0.5 µg/mL.
With CCCCCCc1ccc(-c2cncnc2)cc1 the MIC [1] was 100 µM, the MIC [2] was 4 µg/mL and the “fold change (FC)” value [3] was 32.
For c1ccc(C2=NCCO2)cc1, the MIC [1] was greater than 200 µM and the MIC [2] was 16 µg/mL.
c1ccc(/N=N/c2ccc(C3=NCCO3)cc2)cc1 gave an MIC [1] greater than 200 µM and an MIC [2] of 16 µg/mL.
With Fc1cc(C2=NCCO2)ccc1C(F)(F)F the MIC [1] was greater than 200 µM and the MIC [2] was 16 µg/mL.
For CN(C)c1ccc(C2=NCCO2)cc1, the MIC [1] was greater than 200 µM and the MIC [2] was 16 µg/mL.
In the case of CCCCCCc1ccc(C2=NCCS2)cc1, the MIC [1] is reported as greater than 200 µM, the MIC [2] is reported as 2 µg/mL and the “fold change (FC)” value [3] is reported as 8.
With Brc1cccc(C2=NCCO2)c1 the MIC [1] was greater than 200 µM and the MIC [2] was 16 µg/mL.
Work on CCCCCc1ccc(C2=NCCO2)cc1 yielded an MIC [1] of 200 µM, an MIC [2] of 4 µg/mL and an MIC [4] of 200 µM. The “fold change (FC)” value [5] was 4.
CCCCCCc1ccc(-c2ncc[nH]2)cc1 gave an MIC [1] of 12.5 µM and an MIC [2] of 32 µg/mL.
In the case of CCCCCCc1ccc(C2=NCCO2)cc1, the MIC [1] is reported as greater than 200 µM, the “fold change (FC)” value [5] is reported as 32 and the “fold change (FC)” value [6] is reported as 1000. For the same compound, the MIC [7] was 0.0156 µg/mL, the Activity [8] was “inactive” and the Activity [9] was “inactive”.
Work on CCCCCCc1ccc(-c2ncco2)cc1 yielded an MIC [1] greater than 200 µM and an MIC [2] of 16 µg/mL.
Compound c1cc(C2=NCCO2)ccn1 has an MIC [1] greater than 200 µM and an MIC [2] of 16 µg/mL.
With CCc1ccc(C2=NCCO2)cc1 the MIC [1] was greater than 200 µM and the MIC [2] was 16 µg/mL.
In the case of CCCCCCCCCCc1ccc(C2=NCCO2)cc1, the MIC [1] is reported as greater than 200 µM, the MIC [2] is reported as 16 µg/mL and the “fold change (FC)” value [3] is reported as 8.
Compound Cc1ccc(C2=NCCO2)cc1 has an MIC [1] greater than 200 µM and an MIC [2] of 16 µg/mL.
Compound CCCCCCc1ccc(C(=O)OC)cc1 has an MIC [1] of 200 µM and an MIC [2] of 8 µg/mL.
With CCCCc1ccc(C2=NCCO2)cc1 the MIC [1] was greater than 200 µM, the MIC [2] was 4 µg/mL and the “fold change (FC)” value [3] was 4.
Work on Fc1cc(C2=NCCO2)cc(F)c1F yielded an MIC [1] greater than 200 µM and an MIC [2] of 16 µg/mL.
In the case of CCCCCCc1ccc(C2=NCCCO2)cc1, the MIC [1] is reported as 50 µM, the MIC [2] is reported as 4 µg/mL and the “fold change (FC)” value [3] is reported as 4.
Compound CCCCCc1ccc(-c2ncco2)cc1 has an MIC [1] of 200 µM and an MIC [2] of 16 µg/mL.
In the case of CCCCCCCCCc1ccc(C2=NCCO2)cc1, the MIC [1] is reported as greater than 200 µM, the MIC [2] is reported as 16 µg/mL and the “fold change (FC)” value [3] is reported as 8.
CCCCCCc1ccc(C2OCCO2)cc1 showed an MIC [1] greater than 200 µM and an MIC [2] of 16 µg/mL.
Work on C(=C\c1ccccc1)/C1=NCCO1 yielded an MIC [1] greater than 200 µM and an MIC [2] of 32 µg/mL.
CC(=O)N(O)CCCP(=O)(O)O [FR-900098] gave an MIC [1] of 16 µg/mL and an MIC [4] of 1020 µg/mL.
For CCCCCCc1ccc(C2=NCCN2)cc1, the MIC [1] was 100 µM and the MIC [2] was 16 µg/mL.
c1ccc2cc(C3=NCCO3)ccc2c1 gave an MIC [1] of 100 µM and an MIC [2] of 16 µg/mL.
CCCCCCc1ccc(C2SCCS2)cc1 showed an MIC [1] greater than 200 µM and an MIC [2] of 16 µg/mL.
For CCCCCCCCc1ccc(C2=NCCO2)cc1, the MIC [1] was 200 µM, the MIC [2] was 2 µg/mL and the “fold change (FC)” value [3] was 8.
With CCCc1ccc(C2=NCCO2)cc1 the MIC [1] was greater than 200 µM and the MIC [2] was 16 µg/mL.
CCCCCCc1ccc(-c2c[nH]c(N)n2)cc1 gave an MIC [1] of 12.5 µM and an MIC [2] of 32 µg/mL.
